This is an account of results in ChEMBL document CHEMBL1151262, “Labdane diterpenes from Aster spathulifolius and their cytotoxic effects on human cancer cell lines” (2005).

Holding throughout (type): functional
Holding throughout (settings): read-out: ED50 (the source's name)

Test [1] has as its system A549. The test can be described thus: Cytotoxicity against human A549 cells by SRB method.
The subject of test [2] is HCT-15. Nature of the test: Cytotoxicity against human HCT15 cells by SRB method.
In test [3] the test system is SK-OV-3. The test can be described thus: Cytotoxicity against human SKOV3 cells by SRB method.
The test system of test [4] is XF498. The test can be described thus: Cytotoxicity against human XF498 cells by SRB method.
Test [5] has as its system SK-MEL-2. Nature of the test: Cytotoxicity against human SK-MEL-2 cells by SRB method.

Converted amounts (≈) assume the structure as drawn.

`C=C[C@@](C)(CC[C@H]1C(C)=CC[C@H]2C(C)(C)CCC[C@]12C)O[C@@H]1O[C@@H](C)[C@@H](OC(C)=O)[C@H](O)[C@H]1O`: the EC50 in test [1] was 3.2 µg/mL (≈ 6.69 µM); in test [2], 3.1 µg/mL (≈ 6.48 µM); in test [3], 3.4 µg/mL (≈ 7.1 µM); in test [4], 3.8 µg/mL (≈ 7.94 µM); in test [5] it was 3.5 µg/mL (≈ 7.31 µM).

Regarding `C=C[C@@](C)(CC[C@H]1C(C)=CC[C@H]2C(C)(C)CCC[C@]12C)O[C@@H]1O[C@@H](C)[C@@H](O)[C@H](O)[C@H]1O`, the EC50 in test [1] was 3.9 µg/mL (≈ 8.93 µM); in test [2], 3.2 µg/mL (≈ 7.33 µM); in test [3] it was 5.7 µg/mL (≈ 13.1 µM); in test [4] it was 8.9 µg/mL (≈ 20.4 µM); in test [5], 4.2 µg/mL (≈ 9.62 µM).

On to `C=C[C@](C)(O)CC[C@H]1C(=C)[C@H](O)C[C@H]2C(C)(C)CCC[C@]12C`, for which the EC50 in test [1], in test [2], in test [3], in test [4] and in test [5] was more than 5 µg/mL each time.

As to `C=C[C@@](C)(CC[C@H]1C(C)=CC[C@H]2C(C)(C)CCC[C@]12C)O[C@@H]1O[C@H](C)[C@H](O)[C@H](O)[C@H]1O`, the EC50 in test [1] was 3.5 µg/mL (≈ 8.02 µM); in test [2], 3.9 µg/mL (≈ 8.93 µM); in test [3] it was 3.6 µg/mL (≈ 8.24 µM); in test [4], 4.2 µg/mL (≈ 9.62 µM); in test [5] it was 3.5 µg/mL (≈ 8.02 µM).

In the case of `C=C[C@@](C)(CC[C@@H]1[C@@]2(C)CCCC(C)(C)[C@@H]2CC[C@@]1(C)O)O[C@@H]1O[C@H](C)[C@H](O)[C@H](O)[C@H]1O`, the EC50 in test [1], in test [2], in test [3], in test [4] and in test [5] was more than 5 µg/mL in each case.

Consider `C=C[C@@](C)(CC[C@H]1C(C)=CC[C@H]2C(C)(C)CCC[C@]12C)O[C@@H]1O[C@H](C)[C@H](O)[C@H](OC(C)=O)[C@H]1O`, for which the EC50 is 3.6 µg/mL (≈ 7.52 µM) in test [1]; 3.8 µg/mL (≈ 7.94 µM) in test [2]; 3.8 µg/mL (≈ 7.94 µM) in test [3]; 5.1 µg/mL (≈ 10.7 µM) in test [4]; 3.5 µg/mL (≈ 7.31 µM) in test [5].

As to `C=C[C@@](C)(CC[C@@H]1[C@@]2(C)CCCC(C)(C)[C@@H]2CC[C@@]1(C)O)O[C@H]1O[C@H](C)[C@H](O)[C@@H](O)[C@@H]1O`, the EC50 in test [1], in test [2], in test [3], in test [4] and in test [5] was more than 5 µg/mL each time.

On to `C=C[C@@](C)(O)CC[C@@H]1[C@@]2(C)CCCC(C)(C)[C@@H]2CC[C@@]1(C)O`, for which the EC50 in test [1], in test [2], in test [3], in test [4] and in test [5] was more than 5 µg/mL throughout.

As to `C=C[C@](C)(O)CC[C@H]1C(C)=CC[C@H]2C(C)(C)CCC[C@]12C`, the EC50 in test [1] was 2.4 µg/mL (≈ 8.26 µM); in test [2] it was 9.1 µg/mL (≈ 31.3 µM); in test [3] it was 8.7 µg/mL (≈ 29.9 µM); in test [4], 9.5 µg/mL (≈ 32.7 µM); in test [5], 4.4 µg/mL (≈ 15.1 µM).

As to `C=C[C@@]1(C)CC[C@H]2[C@]3(C)CCC[C@@](C)(C(=O)O)[C@H]3CC[C@]2(C)O1`, the EC50 in test [1], in test [2], in test [3], in test [4] and in test [5] was more than 5 µg/mL throughout.

Take `C=C[C@@](C)(CC[C@H]1C(C)=CC[C@H]2C(C)(C)CCC[C@]12C)O[C@@H]1O[C@H](C)[C@H](OC(C)=O)[C@H](O)[C@H]1O`: the EC50 in test [1] was 3.9 µg/mL (≈ 8.15 µM); in test [2], 4.1 µg/mL (≈ 8.57 µM); in test [3], 5.8 µg/mL (≈ 12.1 µM); in test [4], 8.9 µg/mL (≈ 18.6 µM); in test [5], 3.4 µg/mL (≈ 7.1 µM).

On to `COc1cccc2c1C(=O)c1c(O)c3c(c(O)c1C2=O)C[C@@](O)(C(=O)CO)C[C@@H]3O[C@H]1C[C@H](N)[C@H](O)[C@H](C)O1` [DOXORUBICIN], for which the EC50 in test [1] was determined as 0.012 µg/mL (≈ 0.0221 µM); in test [2], 0.35 µg/mL (≈ 0.644 µM); in test [3], 0.12 µg/mL (≈ 0.221 µM); in test [4], 0.01 µg/mL (≈ 0.0184 µM); in test [5] it was 0.003 µg/mL (≈ 0.00552 µM).

In the case of `COc1cc([C@@H]2c3cc4c(cc3[C@@H](O[C@@H]3O[C@@H]5CO[C@@H](C)O[C@H]5[C@H](O)[C@H]3O)[C@H]3COC(=O)[C@H]23)OCO4)cc(OC)c1O` [ETOPOSIDE], the EC50 in test [1] is 1.5 µg/mL (≈ 2.55 µM); in test [2] it was 2.2 µg/mL (≈ 3.74 µM); in test [3] it was 2.7 µg/mL (≈ 4.59 µM); in test [4], 2.6 µg/mL (≈ 4.42 µM); in test [5], 0.08 µg/mL (≈ 0.136 µM).
